Test results reported in paper PMC7835894 (Molecules, 2021).

How the values were obtained:
Type in all cases: cell-based, human
Caco-2 cells [1] = assay: Transwell cell invasion assay; settings: IC50 concentration; for inhibition in Caco-2 cell invasion compared to control: 24 h; for percentage inhibition of Caco-2 cell invasion: 48 h
Description: Caco-2 cell invasion was assessed using a QCM™ 24-well Colorimetric Cell Invasion Assay kit (Chemicon International, Temecula, CA, USA (Cat # ECM551)), according to the manufacturer’s instructions. Cells were starved of serum for 24 h. […] Inserts were further added into a 24-well plate containing 500 µL of 10% FBS-containing DMEM per well. After incubation for 24 or 48 h at 37 °C, remaining media was removed from the invasion chamber, and cells that had migrated to the other side of the membrane were stained with “Cell Stain” solution for 20 min at room temperature. Non-invaded cells were carefully removed from the upper side of the chamber with the help of cotton-tipped swabs. The stain of invaded cells was then extracted by 200 µL of extraction buffer in a clean well for 15 min at room temperature. Finally, 100 µL extracted stained solution was transferred into a 96-well plate and the optical density was measured at 490 nm with BioTek 800 TS microplate reader.

MDA-MB 231 = assay: MTT antiproliferation assay; settings: for IC50: Homo sapiens, MDA-MB 231, MTT, 24 h, mean ± SEM; for SI (selectivity index): MDA-MB 231, SI = IC50 (WI-38)/IC50 (cancer cell line)
Description: (§1) The antiproliferation and cytotoxicity were assessed using 3-(4,5-dimethylthiazol-2-yl)-2,5-diphenyltetrazolium bromide (MTT, Serva) colorimetric assay. To investigate the antiproliferation, all cell lines were seeded at a density of 20,000 cells per well in 96-well plates and allowed to adhere overnight. […] These concentrations were prepared by diluting the stock solutions with serum-free culture media. The negative control cells were those treated with 0.1% DMSO solvent alone. The treated cells were handled in reduced light and maintained under standard culture growth conditions for 24 h. After the incubation period, MTT powder was prepared as a stock solution (5 mg/mL) and 20 μL of the MTT working reagent (final concentration 0.5 mg/mL) was added to each well. This was followed by incubation with MTT reagent for 4 h in a humidified atmosphere (37 °C, 5% CO2) with subsequent addition of 150 μL of DMSO solubilizing solvent and incubation for 20 min. The absorbance of solubilized violet formazan crystals was measured at 540 nm with Biotek 800 TS microplate reader. IC50 was calculated as the concentration of retinoid that produced 50% cell growth inhibition. For cytotoxicity assessment, WI-38 normal human fibroblast cells were used for the calculation of SI which is the ratio of IC50 retinoid (WI-38)/IC50 retinoid (cancer cell line).

HepG2 = assay: MTT antiproliferation assay; settings: for SI (selectivity index): HepG2, SI = IC50 (WI-38)/IC50 (cancer cell line); for IC50: Homo sapiens, HepG2, MTT, 24 h, mean ± SEM
Description: as §1

Caco-2 cells [2] = assay: Annexin V-FITC/PI apoptosis assay (flow cytometry); settings: Caco-2, IC50 concentration
Description: The ability of synthetic retinoids to induce apoptosis in one of the sensitive cancer cell lines (namely, Caco-2 cells) was detected by Annexin V-FITC and PI according to the protocol of the detection kit (Beckman Coulter, Brea, CA, USA). […] Cells were collected, washed with phosphate-buffered saline (PBS) (Lonza), and resuspended in 1 mL of binding buffer. 100 µL cell suspension was incubated with 1 µL FITC-labeled Annexin V and 5 µL PI for 15 min at 4 °C in the dark. Finally, 400 µL ice-cold binding buffer was added, and the apoptotic cells in each sample were analyzed by Beckman Coulter Epics XL flow cytometer. Apoptotic index (AI) was calculated as the number of apoptotic cell deaths expressed as a percentage from the total gated cells.

WI-38 = assay: MTT antiproliferation/cytotoxicity assay; settings: for IC50: Homo sapiens, WI-38 normal cells, MTT, 24 h, mean ± SEM; for SI (selectivity index): WI-38, SI = IC50 (WI-38)/IC50 (cell line)
Description: as §1

Caco-2 cells [3] = assay: Intracellular and secreted glutamate assay; settings: Caco-2, IC50 doses, 24 h
Description: The glutamate assay was performed using the Glutamate Assay Kit (Sigma-Aldrich, MAK004, St. Louis, MO, USA) according to the manufacturer’s protocol. […] Cells were lysed using 100 µL glutamate assay buffer and insoluble cell debris was then removed by centrifugation at 13,000× g for 10 min. The supernatant was transferred to a 10-KDa molecular weight cut-off (MWCO) spin filter (Sigma-Aldrich, St. Louis, MO, USA) to remove any particulates in the sample, and then was brought to a final volume of 50 µL with glutamate assay buffer and transferred to a 96-well plate. Finally, 100 µL of reaction mix was added to each well and the mixture was incubated for 30 min at 37 °C. The optical density was measured at 450 nm using BioTek 800 TS microplate reader (BioTek, Winooski, VT, USA). For the measurement of secreted glutamate, 50 μL samples of extracellular culture medium were placed in a 96-well plate and the kit’s enzymatic reaction mix was added to induce a glutamate-dependent color change. After 30 min incubation, the reaction products were read at the same wavelength. For determination of glutamate concentration (nmole/µL), a calibration curve was constructed using supplied 0.1 M glutamate standard with different dilutions (0 (blank), 2, 4, 6, 8 and 10 nmole per well). Glutamate concentration was measured according to the manufacturer’s instruction and as documented in earlier studies.

Caco-2 cells [4] = assay: Total antioxidant capacity (TAC/TAO); settings: Caco-2 cell lysate, IC50 concentration, 24 h; solvent control 32.6 ± 0.21
Description: Total antioxidant capacity was assayed spectrophotometrically using a Biodiagnostics® kit (Catalogue number TA 25 13, Biodiagnostics, Cairo, Egypt). […] The measurement of total antioxidants is based on treating the cell lysate with a known excess of H2O2 (50 µM). A certain amount of H2O2, equivalent to TAC, is eliminated leaving a residual amount of H2O2 that is quantified colorimetrically by the enzymatic conversion of 3, 5, dichloro-2-hydroxy benzene sulphonate to a colored product.

Caco-2 cells [5] = assay: Cell cycle analysis (PI, flow cytometry); settings: Caco-2, IC50 of retinoid
Description: The cell cycle analysis was performed using flow cytometry (Beckman Coulter, Brea, CA, USA). […] After incubation, cells were harvested, fixed with 70% alcohol overnight, and stained with PI (50 µg/mL). DNA content was measured by Beckman Coulter Epics XL flow cytometer and G0/G1, S, and G2/M cells were gated as appropriate using Flowing Software 2.5.1 (Turko Bioimaging, Turku, Finland).

Structure (SMILES) | inhibition in Caco-2 cell invasion compared to control (Caco-2 cells [1]) | percentage inhibition of Caco-2 cell invasion (Caco-2 cells [1]) | IC50 (MDA-MB 231) | IC50 (HepG2) | % early apoptotic cells (C+−) (Caco-2 cells [2]; 12 h treatment) | % late apoptotic cells (C−+) (Caco-2 cells [2]; 12 h treatment) | % necrotic cells (C++) (Caco-2 cells [2]; 12 h treatment) | % viable cells (C−−) (Caco-2 cells [2]; 12 h treatment) | % early apoptotic cells (C+−) (Caco-2 cells [2]; 24 h treatment) | % late apoptotic cells (C−+) (Caco-2 cells [2]; 24 h treatment) | % necrotic cells (C++) (Caco-2 cells [2]; 24 h treatment) | % viable cells (C−−) (Caco-2 cells [2]; 24 h treatment) | IC50 (WI-38) | released (extracellular) glutamate, magnitude of reduction (Caco-2 cells [3]) | Total antioxidant activity (TAO) (Caco-2 cells [4]) | % G0-G1 (Caco-2 cells [5]; 12 h treatment) | % G2M (Caco-2 cells [5]; 12 h treatment) | % S (Caco-2 cells [5]; 12 h treatment) | % SubG0-G1 (Caco-2 cells [5]; 12 h treatment) | %G2M/G0-G1 (Caco-2 cells [5]; 12 h treatment) | also measured
CC1(C)CCC(C)(C)c2cc(C#Cc3cccc(C(=O)O)c3)ccc21 [EC19, 3-(5,5,8,8-tetramethyl-5,6,7,8-tetrahydronaphthalen-2-ylethynyl) benzoic acid] | 7.2% | 17.2% | > 100 µM | 42.2 ± 0.92 µM | 6.30 ± 1.1% | 0.01% | 0.4 ± 0.1% | 93.65 ± 14.0% | 75.3 ± 13.8 % | 0.0% | 0.18 ± 0.05% | 24.5 ± 11.8 % | 48.4 ± 1.2 µM | 1.4% | 22.6 ± 0.024 µM/L | 39.1 ± 6.7% | 9.1 ± 1.3 % | 51.5 ± 7.2 % | 0.29 ± 0.1% | 23.4 ± 2.8 % | SI (selectivity index) (MDA-MB 231): <1; SI (selectivity index) (HepG2): 1.2 ± 0.002; % Apoptotic index (AI) (Caco-2 cells [2]; 12 h treatment): 6.3%; SI (selectivity index) (WI-38): 1; % G0-G1 (Caco-2 cells [5]; 24 h treatment): 29.0 ± 4.1%; % G2M (Caco-2 cells [5]; 24 h treatment): 22.5 ± 3.1 %; % S (Caco-2 cells [5]; 24 h treatment): 44.0 ± 8.2 %; % SubG0-G1 (Caco-2 cells [5]; 24 h treatment): 4.5 ± 0.6 %; %G2M/G0-G1 (Caco-2 cells [5]; 24 h treatment): 77.6 ± 10.8 %
CC1=C(/C=C/C(C)=C/C=C/C(C)=C/C(=O)O)C(C)(C)CCC1 [ATRA, All-trans retinoic acid, reference compound] | 3.8% | 8.6% | > 100 µM | 36.2 ± 1.9 µM | 11.99 ± 1.9% | 0.00% | 0.01% | 87.99 ± 15.0% | 47.4 ± 2.5 % | 0.0% | 0.28± 0.17% | 52.4 ± 11.5 % | 34 ± 1.1 µM | 24.1% | 62.6 ± 0.15 µM/L | 26.1 ± 3.6% | 16.3 ± 1.9 % | 57.5 ± 8.1 % | 0.14 ± 0.1% | 62.5 ± 8.8 % | % G0-G1 (Caco-2 cells [5]; 24 h treatment): 37.1 ± 4.5%; % G2M (Caco-2 cells [5]; 24 h treatment): 31.8 ± 4.8 %; % S (Caco-2 cells [5]; 24 h treatment): 29.5 ± 3.5%; % SubG0-G1 (Caco-2 cells [5]; 24 h treatment): 1.6 ± 0.19 %; %G2M/G0-G1 (Caco-2 cells [5]; 24 h treatment): 85.7 ± 16.3 %
CC1(C)CCC(C)(C)c2cc(C#Cc3ccc(C(=O)O)cc3)ccc21 [EC23, 4-(5,5,8,8-tetramethyl-5,6,7,8-tetrahydronaphthalen-2-ylethynyl) benzoic acid] | 4.8% | 15.8% | > 100 µM | 0.74 ± 0.001 µM | 8.34 ± 1.1% | 0.01% | 0.05% | 91.61 ± 13.7% | 65.4 ± 18.4 % | 0.0% | 0.16 ± 0.14% | 34.4 ± 18.3 % | 8.01 ± 0.13 µM | 5% | 22.6 ± 0.024 µM/L | 58.7 ± 8.2% | 6.8 ± 0.8 % | 34.0 ± 4.1% | 0.46 ± 0.1% | 11.6 ± 1.7 % | SI (selectivity index) (MDA-MB 231): <1; SI (selectivity index) (HepG2): 10.82 ± 1.0; % Apoptotic index (AI) (Caco-2 cells [2]; 12 h treatment): 8.3%; SI (selectivity index) (WI-38): 1; % G0-G1 (Caco-2 cells [5]; 24 h treatment): 32.7 ± 4.6%; % G2M (Caco-2 cells [5]; 24 h treatment): 15.8 ± 1.9 %; % S (Caco-2 cells [5]; 24 h treatment): 47.6 ± 9.1 %; % SubG0-G1 (Caco-2 cells [5]; 24 h treatment): 3.9 ± 0.43 %; %G2M/G0-G1 (Caco-2 cells [5]; 24 h treatment): 48.3 ± 6.8 %
